Laboratory results taken from patent publication US8961959B2, “Glucosylceramide synthase inhibitors and therapeutic methods using the same” (The Regents of the University of Michigan, priority 2011, dated 2015).

System: Sandhoff (Hexb−/−) mice
Test: Juvenile Sandhoff (Hexb−/−) mice treated with compound 3h
Format: in vivo, mouse
Conditions: for Neutral Lipids GA2: p-15 Sandhoff mice; for Total Siatic Acid: Hexb −/− p-15, 60 mg/kg/day i.p. p-9 to p-15, resorcinol assay
Protocol: The SV/129 Hexb−/− mice were obtained from the NIH. The mice were derived by the disruption of the murine Hexb gene and transferring this gene into the mouse genome via homologous recombination and embryonic stem cell technology as previously described (38). The genotypes of mice were determined by PCR as previously described. Mice were propagated and housed in plastic cages with filter tops containing Sani-Chip bedding (P.J. Murphy Forest Products Corp.; Montville, N.J.). Food and water were provided ad libitum. Nursing females were provided with cotton nesting pads for the duration of the experiment.
The solution was dried under nitrogen, resuspended in 3.6 ml distilled H2O, then dissolved at 42° C. in a shaking water bath. The solution was neutralized by adding 400 μl of 10× phosphate buffer saline (PBS), and was sterilized following passage through an Acrodisc 0.2 μm syringe filter (Sigma, St. Louis, Mo.). […] The mice were weighed daily and received intraperitoneal (i.p.) injections equivalent to 60 mg/kg from postnatal day 9 (p-9) to postnatal day 15 (p-15). Control mice received i.p. injections of PBS. Injections were performed using a Hamilton syringe (26 gauge, point style 2, 0.5 inch needle) (Hamilton, Reno, Nev.), and volumes ranged from 50 ul to 100 μl/mouse. The mice were sacrificed 4 hrs after the final injection on p-15. Cerebrum, cerebellum, and liver were dissected and frozen on dry ice to determine wet weight. The tissues then were homogenized in 3.0 ml distilled H2O, and 150 μl of each homogenate was set aside for analysis of protein and lysosomal enzyme activities. The remaining homogenate was frozen at −80° C., lyophilized, then weighed before lipid extraction. […]
Lipid extraction of lyophilized tissue was performed overnight in 5 ml CHCl3:CH3OH 1:1 (v/v). Samples were spun down at 2500 rpm for 20 min, and the supernatant was collected. Pellets were washed in 2 ml CHCl3:CH3OH 1:1 (v/v), spun down again, and the total 7 ml of supernatant was brought up to a final volume of 19.6 ml at a ratio of 30:60:8 CHCl3:CH3OH:dH2O (v/v/v).
Neutral lipids and cholesterol were separated from acidic lipids and gangliosides by ion exchange chromatography as we described (32, 28, 24). The total lipid extract, suspended in CHCl3:CH3OH:dH2O, 30:60:8 by volume (solvent A), was applied to a DEAE Sephadex column (1.2 mL bed volume) that had been equilibrated prior with solvent A (28). The column was washed twice with 20 mL solvent A and the entire neutral lipid fraction, consisting of the initial eluent plus washes, was collected. This fraction contained cholesterol, phosphatidylcholine, phosphatidylethanolamine and plasmalogens, sphingomyelin, and neutral GSLs to include cerebrosides and asialo-GM2 (GA2). Next, acidic lipids were eluted from the column with 35 mL CHCl3:CH3OH:0.8 M Na acetate, 30:60:8 by volume. Gangliosides were separated from acidic phospholipids by Folch partitioning, base treated, and desalted as previously described (32, 28). Neutral lipids were dried by rotary evaporation and resuspended in 10 mL CHCl3:CH3OH (2:1; v/v). A 4 mL aliquot was evaporated under nitrogen, base treated with 1 N NaOH, and Folch partitioned. The Folch lower phase containing GA2 was evaporated under nitrogen and resuspended in 4 mL CHCl3:CH3OH (2:1; v/v).
Total ganglioside content was quantified before and after desalting using the resorcinol assay as previously described (28). Sialic acid values were fit to a standard curve using n-acetylneuraminic acid as a standard.
All lipids were analyzed qualitatively by high-performance thin-layer chromatography (HPTLC) according to previously described methods (28, 24, 25). Lipids were spotted on 10 cm×20 cm Silica gel 60 HPTLC plates (E. Merck, Darmstadt, Germany) using a Camag Linomat III auto-TLC spotter (Camag Scientific, Inc., Wilmington, N.C.). […]

[1] = Hexb −/− mice p-15, 60 mg/kg/day i.p. p-9 to p-15, mean ± SEM
[2] = cerebellum, Hexb −/− p-15, 60 mg/kg/day
[3] = cerebrum, Hexb −/− p-15, 60 mg/kg/day
[4] = liver, Hexb −/− p-15, 60 mg/kg/day

O=C(CC1Cc2ccccc2C1)N[C@H](CN1CCCC1)[C@H](O)c1ccc2c(c1)OCCO2 [Compound 3h, 2-(2,3-dihydro-1H-inden-2-yl)-N-((1R,2R)-1-(2,3-dihydrobenzo[b][1,4]dioxin-6-yl)-1-hydroxy-3-(pyrrolidin-1-yl)propan-2-yl)acetamide]
adverse effects on body weight over the treatment period (60 mg/kg/day p-9 to p-15): no adverse effects
Neutral Lipids GA2 (Cerebellum): 0.55 ± 0.01 mg/100 mg dry weight
Neutral Lipids GA2 (Cerebrum): 0.51 ± 0.01 mg/100 mg dry weight
Body Weight (Hexb −/− mice p-15, 60 mg/kg/day i.p. p-9 to p-15 (oxalate), mean ± SEM): 9.0 ± 0.5 g
Water Content Cerebellum [1]: 83.88 ± 0.01%
Water Content Cerebrum [1]: 84.45 ± 0.01%
Wet Weight Cerebellum [1]: 87.7 ± 7.7 mg
Wet Weight Cerebrum [1]: 271.0 ± 2.3 mg
Neutral Lipids GA2 (Liver): 1.10 ± 0.05 mg/100 mg dry weight
reduction of GM2 content (cerebellum of Hexb −/− mice): 53%
total sialic content lower than in control Hexb −/− mice (cerebellum, 60 mg/kg/day p-9 to p-15): 14%
G1a Concentration [2]: 76.6 ± 3.7 micrograms of sialic acid per 100 mg dry weight
G1a Percent [2]: 24.1 ± 0.3%
GD1b Concentration [2]: 42.1 ± 2.0 micrograms of sialic acid per 100 mg dry weight
GD1b Percent [2]: 24.1 ± 0.3%
GD3 Concentration [2]: 9.8 ± 1.2 micrograms of sialic acid per 100 mg dry weight
GD3 Percent [2]: 4.3 ± 0.2%
GM1 Concentration [2]: 17.4 ± 1.4 micrograms of sialic acid per 100 mg dry weight
GM1 Percent [2]: 5.5 ± 0.4%
GM2 Concentration [2]: 9.8 ± 1.2 micrograms of sialic acid per 100 mg dry weight
GM2 Percent [2]: 3.1 ± 0.1%
GQ1b Concentration [2]: 41.3 ± 3.8 micrograms of sialic acid per 100 mg dry weight
GQ1b Percent [2]: 12.9 ± 0.1%
GT1a/LD1 Concentration [2]: 22.9 ± 1.0 micrograms of sialic acid per 100 mg dry weight
GT1a/LD1 Percent [2]: 7.2 ± 0.1%
GT1b Concentration [2]: 94.4 ± 3.9 micrograms of sialic acid per 100 mg dry weight
GT1b Percent [2]: 29.7 ± 0.8%
Total Siatic Acid (cerebellum, mean ± SEM): 318 ± 15
reduction of GM2 content (cerebrum of Hexb −/− mice): 52%
total sialic content lower than in control Hexb −/− mice (cerebrum, 60 mg/kg/day p-9 to p-15): 11%
G1a Concentration [3]: 187.4 ± 5.2 micrograms of sialic acid per 100 mg dry weight
G1a Percent [3]: 43.4 ± 0.3%
GD1b Concentration [3]: 31.7 ± 0.5 micrograms of sialic acid per 100 mg dry weight
GD1b Percent [3]: 7.3 ± 0.1%
GM1 Concentration [3]: 26.4 ± 1.6 micrograms of sialic acid per 100 mg dry weight
GM1 Percent [3]: 6.1 ± 0.2%
GM2 Concentration [3]: 87.7 ± 7.7 micrograms of sialic acid per 100 mg dry weight
GM2 Percent [3]: 2.8 ± 0.1%
GQ1b Concentration [3]: 33.3 ± 0.7 micrograms of sialic acid per 100 mg dry weight
GQ1b Percent [3]: 7.7 ± 0.1%
GT1a/LD1 Concentration [3]: 20.8 ± 0.7 micrograms of sialic acid per 100 mg dry weight
GT1a/LD1 Percent [3]: 4.8 ± 0.3%
GT1b Concentration [3]: 119.8 ± 3.3 micrograms of sialic acid per 100 mg dry weight
GT1b Percent [3]: 27.8 ± 0.1%
Total Siatic Acid (cerebrum, mean ± SEM): 432 ± 11
body weight versus control Hexb −/− mice (in words): slightly higher
reduction of NGNA-GM2 content (liver, versus PBS-treated Hexb −/− controls): 45%
total sialic content lower than in control Hexb −/− mice (liver, 60 mg/kg/day p-9 to p-15): 38%
G1a Concentration [4]: 12.2 ± 0.3 micrograms of sialic acid per 100 mg dry weight
G1a Percent [4]: 17.6 ± 1.1%
GM1 Concentration [4]: 15.4 ± 2.1 micrograms of sialic acid per 100 mg dry weight
GM1 Percent [4]: 21.9 ± 1.5%
GM2 Concentration [4]: 42.1 ± 2.6 micrograms of sialic acid per 100 mg dry weight
GM2 Percent [4]: 60.5 ± 1.3%
Total Siatic Acid (liver, mean ± SEM): 70 ± 5
reduction of GA2 in Hexb −/− liver (p=0.06): not significant
